Measured values from patent US20040171566A1, “Antisense modulation of p38 mitogen activated protein kinase expression” (priority 1999, published 2004).
e = 2'-O-(2-methoxyethyl) (MOE); d = 2'-deoxy (DNA)

Experiments:
Assay type in all cases: cell-based
human p38β mRNA = assay: Inhibition of human p38β mRNA expression in HUVEC cells, Northern blot; details: 100 nM oligonucleotide in 10 μg/ml LIPOFECTIN, four hours, Northern blot
Description: The human Jurkat T-cell line (American Type Culture Collection, Manassas, Va.) was maintained in RPMI 1640 growth media supplemented with 10% fetal bovine serum (FBS; Hyclone, Logan, Utah). HUVEC cells (Clonetics, San Diego, Calif.) were cultivated in endothelial basal media supplemented with 10% FBS (Hyclone, Logan, Utah).
HUVEC cells were allowed to reach 75% confluency prior to use. The cells were washed twice with warm (37° C.) OPTI-MEM™ (Life Technologies). The cells were incubated in the presence of the appropriate culture medium, without the growth factors added, and the oligonucleotide formulated in LIPOFECTIN7 (Life Technologies), a 1:1 (w/w) liposome formulation of the cationic lipid N-[1-(2,3-dioleyloxy)propyl]-n,n,n-trimethylammonium chloride (DOTMA), and dioleoyl phosphotidylethanolamine (DOPE) in membrane filtered water. HUVEC cells were treated with 100 nM oligonucleotide in 10 μg/ml LIPOFECTIN7. Treatment was for four hours.
Total mRNA was isolated using the RNEASY7 Mini Kit (Qiagen, Valencia, Calif.; similar kits from other manufacturers may also be used), separated on a 1% agarose gel, transferred to HYBOND™-N+ membrane (Amersham Pharmacia Biotech, Piscataway, N.J.), a positively charged nylon membrane, and probed. p38 MAPK probes were made using the Prime-A-Gene7 kit (Promega Corporation, Madison, Wis.), a random primer labeling kit, using mouse p38α or p38β cDNA as a template. A glyceraldehyde 3-phosphate dehydrogenase (G3PDH) probe was purchased from Clontech (Palo Alto, Calif.), Catalog Number 9805-1. The fragments were purified from low-melting temperature agarose, as described in Maniatis, T., et al., Molecular Cloning: A Laboratory Manual, 1989. The G3PDH probe was labeled with REDIVUE™ ^32P-dCTP (Amersham Pharmacia Biotech, Piscataway, N.J.) and Strip-EZ labelling kit (Ambion, Austin, Tex.). mRNA was quantitated by a PhosphoImager (Molecular Dynamics, Sunnyvale, Calif.).
Every oligonucleotide tested gave at least 50% inhibition.
Oligonucleotides 17893 (SEQ ID NO. 27), 17899 (SEQ ID NO:33), 17904 (SEQ ID NO. 38), and 17907 (SEQ ID NO. 41) were chosen for dose response studies. HUVEC cells were cultured and treated as described in Example 2 except that the oligonucleotide concentration was varied as shown in Table 6. The Lipofectin7/Oligo ratio was maintained at 3 μg Lipofectin7/100 nM oligo, per ml. mRNA was measured by Northern blot as described in Example 2.

mouse p38α mRNA = assay: Mouse p38α mRNA levels in bEND.3 cells, quantitative real-time PCR; set-up: % Inhib. mouse p38α: concentration or dose not given beside the values; details: bEND.3 cells, mRNA by quantitative real-time PCR, average of two experiments
Description: (§1) Quantitation of p38α mRNA levels was accomplished by real-time quantitative PCR using the ABI PRISM™ 7600, 7700, or 7900 Sequence Detection System (PE-Applied Biosystems, Foster City, Calif.) according to manufacturer's instructions. This is a closed-tube, non-gel-based, fluorescence detection system which allows high-throughput quantitation of polymerase chain reaction (PCR) products in real-time. As opposed to standard PCR in which amplification products are quantitated after the PCR is completed, products in real-time quantitative PCR are quantitated as they accumulate. This is accomplished by including in the PCR reaction an oligonucleotide probe that anneals specifically between the forward and reverse PCR primers, and contains two fluorescent dyes. A reporter dye (e.g., FAM or JOE, obtained from either PE-Applied Biosystems, Foster City, Calif., Operon Technologies Inc., Alameda, Calif. or Integrated DNA Technologies Inc., Coralville, Iowa) is attached to the 5′ end of the probe and a quencher dye (e.g., TAMRA, obtained from either PE-Applied Biosystems, Foster City, Calif., Operon Technologies Inc., Alameda, Calif. or Integrated DNA Technologies Inc., Coralville, Iowa) is attached to the 3′ end of the probe. When the probe and dyes are intact, reporter dye emission is quenched by the proximity of the 3′ quencher dye. During amplification, annealing of the probe to the target sequence creates a substrate that can be cleaved by the 5′-exonuclease activity of Taq polymerase. […] With each cycle, additional reporter dye molecules are cleaved from their respective probes, and the fluorescence intensity is monitored at regular intervals by laser optics built into the ABI PRISM™ Sequence Detection System. In each assay, a series of parallel reactions containing serial dilutions of mRNA from untreated control samples generates a standard curve that is used to quantitate the percent inhibition after antisense oligonucleotide treatment of test samples.
(§2) Prior to quantitative PCR analysis, primer-probe sets specific to the target gene being measured are evaluated for their ability to be “multiplexed” with a GAPDH amplification reaction. In multiplexing, both the target gene and the internal standard gene GAPDH are amplified concurrently in a single sample. In this analysis, mRNA isolated from untreated cells is serially diluted. Each dilution is amplified in the presence of primer-probe sets specific for GAPDH only, target gene only (“single-plexing”), or both (multiplexing). Following PCR amplification, standard curves of GAPDH and target mRNA signal as a function of dilution are generated from both the single-plexed and multiplexed samples. If both the slope and correlation coefficient of the GAPDH and target signals generated from the multiplexed samples fall within 10% of their corresponding values generated from the single-plexed samples, the primer-probe set specific for that target is deemed multiplexable. Other methods of PCR are also known in the art.
(§3) PCR reagents were obtained from Invitrogen Corporation, (Carlsbad, Calif.). […] The RT reaction was carried out by incubation for 30 minutes at 48° C. Following a 10 minute incubation at 95° C. to activate the PLATINUM® Taq, 40 cycles of a two-step PCR protocol were carried out: 95° C. for 15 seconds (denaturation) followed by 60° C. for 1.5 minutes (annealing/extension).
(§4) Gene target quantities obtained by real time RT-PCR are normalized using either the expression level of GAPDH, a gene whose expression is constant, or by quantifying total RNA using RiboGreen™ (Molecular Probes, Inc. Eugene, Oreg.). GAPDH expression is quantified by real time RT-PCR, by being run simultaneously with the target, multiplexing, or separately. Total RNA is quantified using RiboGreen™ RNA quantification reagent (Molecular Probes, Inc. Eugene, Oreg.). Methods of RNA quantification by RiboGreen™ are taught in Jones, L. J., et al, (Analytical Biochemistry, 1998, 265, 368-374). […]

rat p38α mRNA = assay: Rat p38α mRNA levels in NR-8383 cells, quantitative real-time PCR; details: 300 nM oligonucleotide with FuGENE 6, 24 hours, mRNA by quantitative real-time PCR, average of two experiments
Description: as §1, §2, §3, §4

Substance | % mRNA EXPRESSION (human p38β mRNA) [%] | % mRNA Inhibition (human p38β mRNA) [%] | % Inhib. mouse p38α (mouse p38α mRNA) [%] | % Inhib. rat p38α (rat p38α mRNA) [%]
TTCAGCTCCTGCCGGTAGAA (chemistry not fully specified) [ISIS 17892] | 10 | 90 |  | 
320167 (antisense CTTGCCTGTAAAAACACAGA; sugars from the 5' end e5 d10 e5, all phosphorothioate, methylation of C not given here) [compound 320167] |  |  | 7 | 11
320105 (antisense CCCGTCTTTGTATCAAAAGC; sugars from the 5' end e5 d10 e5, all phosphorothioate, methylation of C not given here) [compound 320105] |  |  | 89 | 59
320129 (antisense CATTTCTTCTTGGTCAAGGG; sugars from the 5' end e5 d10 e5, all phosphorothioate, methylation of C not given here) [compound 320129] |  |  | 69 | 65
320154 (antisense TCATGTTTATAAAGGTGAAA; sugars from the 5' end e5 d10 e5, all phosphorothioate, methylation of C not given here) [compound 320154] |  |  | 52 | 50
320144 (antisense CCTTTTAAGGCACAAACAGA; sugars from the 5' end e5 d10 e5, all phosphorothioate, methylation of C not given here) [compound 320144] |  |  | 83 | 39
320155 (antisense CCCTGAGGATTCATGTTTAT; sugars from the 5' end e5 d10 e5, all phosphorothioate, methylation of C not given here) [compound 320155] |  |  | 93 | 73
320131 (antisense CTTCCCCTCACAGTGAAGTG; sugars from the 5' end e5 d10 e5, all phosphorothioate, methylation of C not given here) [compound 320131] |  |  | 92 | 39
320127 (antisense TGAGCAAAGTAGGCATGCGC; sugars from the 5' end e5 d10 e5, all phosphorothioate, methylation of C not given here) [compound 320127] |  |  | 73 | 56
320135 (antisense ACCCCCTTCCACCATGAAGG; sugars from the 5' end e5 d10 e5, all phosphorothioate, methylation of C not given here) [compound 320135] |  |  | 95 | 47
320145 (antisense GACCTCTGCACTGAGGTGAA; sugars from the 5' end e5 d10 e5, all phosphorothioate, methylation of C not given here) [compound 320145] |  |  | 52 | 44
306022 (antisense GGCCAGAGACTGAATGTAGT; sugars from the 5' end e5 d10 e5, all phosphorothioate, methylation of C not given here) [compound 306022] |  |  | 78 | 53
320107 (antisense TAGGTCCTTTTGGCGTGAAT; sugars from the 5' end e5 d10 e5, all phosphorothioate, methylation of C not given here) [compound 320107] |  |  | 84 | 60
320128 (antisense TCAAAGGACTGGTCATAAGG; sugars from the 5' end e5 d10 e5, all phosphorothioate, methylation of C not given here) [compound 320128] |  |  | 79 | 37
320157 (antisense CGTCCAACACTGGAATTGGC; sugars from the 5' end e5 d10 e5, all phosphorothioate, methylation of C not given here) [compound 320157] |  |  | 96 | 71
320147 (antisense AGAGCACAGCATGCAAACAC; sugars from the 5' end e5 d10 e5, all phosphorothioate, methylation of C not given here) [compound 320147] |  |  | 66 | 43
320166 (antisense ACTGAATGTAGTTTCTTGCC; sugars from the 5' end e5 d10 e5, all phosphorothioate, methylation of C not given here) [compound 320166] |  |  | 53 | 35
320148 (antisense CCAGGGCTTCCAGAAGACAG; sugars from the 5' end e5 d10 e5, all phosphorothioate, methylation of C not given here) [compound 320148] |  |  | 78 | 33
320139 (antisense GCAGCCTCTCTCTGTCACTG; sugars from the 5' end e5 d10 e5, all phosphorothioate, methylation of C not given here) [compound 320139] |  |  | 87 | 61
320133 (antisense ACTTGAATGGTATTTGGAGA; sugars from the 5' end e5 d10 e5, all phosphorothioate, methylation of C not given here) [compound 320133] |  |  | 52 | 61
